What was measured:
[1] = biological target: bovine serum albumin (BSA) (Bos taurus, UniProt P02769); assay: Albumin binding by absorption spectroscopy titration
[2] = test system: breast cancer cell line (MDA-MB231); assay: Cytotoxicity assay (CellTiter 96 AQueous One Solution, 72 h); assay type: cell-based, human; conditions: EC50 in HEK293 over EC50 in MDA-MB231
Method: (§1) In vitro cell viability with cultured cells is a method commonly used for cytotoxicity activities of potential anticancer compounds due to reduced cost speed, and potential for automation, and tests using human cells other than some in vivo animal tests. […] The cytotoxicity assay was conducted as per the standard method and as described by Abrahams et al. 2018 [111]. […] The plate was then incubated for 72 h at 37 °C and 5% CO2. To each well, 20 µL CellTiter 96 AQueous One Solution (Promega, Madison, WI, USA) was added and the plates were incubated for 4 h as previously described. Thereafter, absorbance was read at 490 nm on a multiplate reader (Molecular Devices, San Jose, CA, USA). […] The values recorded are averages of at least three separate experiments (n = 3).

[3] = test system: neuronal cancer cell line (SHSY5Y); assay: as above; assay type: cell-based, human; conditions: EC50 in HEK293 over EC50 in SHSY5Y
Method: as §1

[4] = test system: cervical cancer cell line (HELA); assay: as above; assay type: cell-based, human; conditions: EC50 in HEK293 over EC50 in HELA
Method: as §1

[5] = test system: Salmonella typhimurium ATCC 14026; assay: Minimum inhibitory concentration (MIC), spotting on Müeller–Hinton agar; assay type: cell-based; conditions: Gram − Ve; S. typhi; 37 °C, 18 h
[6] = test system: Staphylococcus aureus ATCC 25923; assay: as above; assay type: cell-based; conditions: Gram + Ve; S. aureus; 37 °C, 18 h
[7] = test system: Staphylococcus aureus ATCC 700699 (methicillin-resistant); assay: as above; assay type: cell-based; conditions: Gram + Ve; methicillin-resistant S. aureus; 37 °C, 18 h
[8] = test system: Escherichia coli ATCC 25922; assay: as above; assay type: cell-based; conditions: Gram − Ve; E. coli; 37 °C, 18 h
CT-DNA-EB adduct = assay: Fluorescence competitive displacement of ethidium bromide from CT-DNA; assay type: binding, calf; conditions: for CT-DNA-EB-Complex Ksv (M^−1) × 10^4: Stern–Volmer quenching constant, EB displacement, 25 °C; for CT-DNA-EB-Complex Kq (M^−1S^−1) × 10^12: bimolecular quenching constant, Ksv = Kqτo, τo 10^−8 s; for CT-DNA-EB-Complex Kbin (M^−1) × 10^5: binding constant from double-logarithmic plot
In short: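 CT-DNA (15 µM) was pre-equilibrated 30 min with ethidium bromide (15 µM) in phosphate buffer pH 7.2, then titrated with complexes (0–20 µM) at 8-min intervals at room temperature. EB emission was recorded at 530–700 nm (excitation 525 nm, 25 °C), and quenching was analysed by Stern–Volmer to give Ksv and Kq (τo taken as 10^−8 s).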

bovine serum albumin (BSA), sequence (P02769 25-607): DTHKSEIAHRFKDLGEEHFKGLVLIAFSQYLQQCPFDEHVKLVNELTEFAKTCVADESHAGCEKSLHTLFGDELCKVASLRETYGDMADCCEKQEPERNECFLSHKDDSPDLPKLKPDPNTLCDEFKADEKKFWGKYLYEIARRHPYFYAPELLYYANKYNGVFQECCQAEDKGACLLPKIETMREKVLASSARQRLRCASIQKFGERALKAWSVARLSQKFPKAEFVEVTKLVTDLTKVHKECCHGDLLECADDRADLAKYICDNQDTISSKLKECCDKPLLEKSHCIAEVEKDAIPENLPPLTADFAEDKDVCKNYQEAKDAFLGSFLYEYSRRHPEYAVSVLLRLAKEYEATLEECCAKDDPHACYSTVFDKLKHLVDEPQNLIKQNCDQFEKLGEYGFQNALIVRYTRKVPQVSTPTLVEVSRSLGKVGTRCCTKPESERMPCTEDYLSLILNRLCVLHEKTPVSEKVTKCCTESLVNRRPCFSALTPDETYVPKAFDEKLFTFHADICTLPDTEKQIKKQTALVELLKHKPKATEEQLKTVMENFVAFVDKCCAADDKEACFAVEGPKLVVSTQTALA

| Compound | Protein-Complex Kb (M^−1) × 10^4 [1] | Selectivity Index (SI) MDA-MB231 [2] | Selectivity Index (SI) SHSY5Y [3] | Selectivity Index (SI) HELA [4] | Minimum inhibitory concentration, ST [5] | Minimum inhibitory concentration, SA [6] | Minimum inhibitory concentration, MRSA [7] | Minimum inhibitory concentration, EC [8] | CT-DNA-EB-Complex Ksv (M^−1) × 10^4 (CT-DNA-EB adduct) | CT-DNA-EB-Complex Kq (M^−1S^−1) × 10^12 (CT-DNA-EB adduct) | CT-DNA-EB-Complex Kbin (M^−1) × 10^5 (CT-DNA-EB adduct) |
| --- | --- | --- | --- | --- | --- | --- | --- | --- | --- | --- | --- |
| [Ag+].[O-][Cl+3]([O-])([O-])[O-].c1ccc2nc(-c3nc4ccccc4s3)ccc2c1.c1ccc2nc(-c3nc4ccccc4s3)ccc2c1 [Complex Q7, [Ag(L2)2]ClO4] | 9.38 (M^−1) × 10^4 | 2.40 | 3.30 | 4.39 | 50 µg/mL | 1.6 µg/mL | 50 µg/mL | 25 µg/mL | 3.96 (M^−1) × 10^4 | 3.96 (M^−1S^−1) × 10^12 | 1.29 (M^−1) × 10^5 |
| Cc1ccc(N=Cc2ccc3ccccc3n2)cc1.Cc1ccc(N=Cc2ccc3ccccc3n2)cc1.[Ag+].[O-][Cl+3]([O-])([O-])[O-] [Complex Q9, [Ag(L4)2]ClO4] | 5.43 (M^−1) × 10^4 | 2.57 | 2.12 | 4.48 | 50 µg/mL | 50 µg/mL | 1000 µg/mL | 12.5 µg/mL | 2.49 (M^−1) × 10^4 | 2.49 (M^−1S^−1) × 10^12 | 6.53 (M^−1) × 10^5 |

Reference: article PMC7956476, “Quinoline Functionalized Schiff Base Silver (I) Complexes: Interactions with Biomolecules and In Vitro Cytotoxicity, Antioxidant and Antimicrobial Activities” (Molecules, 2021)
